Test: xn = mol fraction of the nth substance listed
Details: 101 kPa, Liquid, Vibrating tube method

CC(=O)O [acetic acid] + CCC(C)O
mass density [kg/m3]
Details | 293.15 K | 298.15 K | 303.15 K | 313.15 K | 323.15 K | 333.15 K
x1 = 0.0822 | 819.04 | 814.82 | 810.53 | 801.69 | 792.5 | 782.93
x1 = 0.1628 | 832.16 | 827.83 | 823.44 | 814.46 | 805.17 | 795.54
x1 = 0.2395 | 845.65 | 841.23 | 836.76 | 827.62 | 818.22 | 808.51
x1 = 0.321 | 861.12 | 856.58 | 852 | 842.7 | 833.16 | 823.36
x1 = 0.3979 | 876.8 | 872.17 | 867.49 | 858.02 | 848.33 | 838.39
x1 = 0.4759 | 893.89 | 889.16 | 884.37 | 874.69 | 864.83 | 854.77
x1 = 0.5611 | 914 | 909.12 | 904.22 | 894.32 | 884.26 | 874
x1 = 0.6399 | 934.04 | 929.04 | 924.01 | 913.87 | 903.62 | 893.19
x1 = 0.7197 | 955.97 | 950.84 | 945.68 | 935.3 | 924.81 | 914.19
x1 = 0.8003 | 980.06 | 974.78 | 969.49 | 958.84 | 948.1 | 937.26
x1 = 0.8796 | 1005.8 | 1000.35 | 994.91 | 983.99 | 973.01 | 961.97
x1 = 0.9365 | 1025.67 | 1020.12 | 1014.58 | 1003.46 | 992.31 | 981.11
x1 = 0.9586 | 1033.71 | 1028.12 | 1022.54 | 1011.36 | 1000.14 | 988.87

CCC(=O)O [propanoic acid] + CC(C)CO
mass density [kg/m3]
Details | 283.15 K | 293.15 K | 303.15 K | 313.15 K | 323.15 K | 333.15 K
x1 = 0.0803 | 815.48 | 811.49 | 807.47 | 799.27 | 790.86 | 782.19
x1 = 0.1616 | 829.5 | 825.39 | 821.25 | 812.83 | 804.2 | 795.34
x1 = 0.2482 | 844.79 | 840.55 | 836.28 | 827.63 | 818.79 | 809.74
x1 = 0.3212 | 857.93 | 853.59 | 849.22 | 840.38 | 831.37 | 822.15
x1 = 0.4008 | 872.54 | 868.09 | 863.61 | 854.56 | 845.37 | 836
x1 = 0.4828 | 887.9 | 883.34 | 878.76 | 869.5 | 860.12 | 850.57
x1 = 0.5602 | 902.63 | 897.96 | 893.27 | 883.83 | 874.27 | 864.57
x1 = 0.6413 | 918.47 | 913.69 | 908.9 | 899.25 | 889.49 | 879.62
x1 = 0.7201 | 934.21 | 929.32 | 924.42 | 914.55 | 904.62 | 894.59
x1 = 0.8016 | 950.86 | 945.84 | 940.81 | 930.72 | 920.57 | 910.32
x1 = 0.8777 | 966.86 | 961.72 | 956.56 | 946.23 | 935.86 | 925.44
x1 = 0.9586 | 984.47 | 979.16 | 973.84 | 963.22 | 952.58 | 941.92

CCC(C)(C)O [2-methylbutan-2-ol] + CCC(=O)O
mass density [kg/m3]
Details | 283.15 K | 293.15 K | 303.15 K | 313.15 K | 323.15 K | 333.15 K
x2 = 0.0822 | 819.84 | 815.21 | 810.53 | 801.01 | 791.2 | 781.09
x2 = 0.16 | 830.58 | 825.94 | 821.26 | 811.74 | 801.99 | 791.96
x2 = 0.2419 | 842.49 | 837.85 | 833.18 | 823.69 | 814 | 804.06
x2 = 0.3189 | 854.39 | 849.75 | 845.08 | 835.62 | 825.96 | 816.07
x2 = 0.4024 | 868.02 | 863.37 | 858.68 | 849.19 | 839.53 | 829.68
x2 = 0.4806 | 881.53 | 876.85 | 872.13 | 862.6 | 852.91 | 843.03
x2 = 0.5588 | 895.71 | 890.97 | 886.21 | 876.6 | 866.84 | 856.93
x2 = 0.6429 | 911.85 | 907.05 | 902.23 | 892.5 | 882.64 | 872.64
x2 = 0.7218 | 927.93 | 923.03 | 918.13 | 908.25 | 898.28 | 888.18
x2 = 0.785 | 941.5 | 936.52 | 931.53 | 921.51 | 911.41 | 901.2
x2 = 0.8812 | 963.57 | 958.43 | 953.3 | 942.98 | 932.62 | 922.2
x2 = 0.9561 | 982.1 | 976.8 | 971.51 | 960.92 | 950.3 | 939.64

CCC(C)(C)O [2-methylbutan-2-ol] + CC(=O)O
mass density [kg/m3]
Details | 283.15 K | 293.15 K | 303.15 K | 313.15 K | 323.15 K | 333.15 K
x2 = 0.0794 | 819.64 | 814.95 | 810.22 | 800.6 | 790.72 | 780.53
x2 = 0.0827 | 820.07 | 815.38 | 810.64 | 801.02 | 791.14 | 780.94
x2 = 0.1664 | 832.07 | 827.35 | 822.59 | 812.92 | 803.02 | 792.86
x2 = 0.1672 | 832.17 | 827.45 | 822.69 | 813.02 | 803.12 | 792.96
x2 = 0.2361 | 842.73 | 838.01 | 833.24 | 823.57 | 813.68 | 803.54
x2 = 0.3176 | 856.35 | 851.61 | 846.84 | 837.15 | 827.25 | 817.14
x2 = 0.3914 | 869.87 | 865.1 | 860.3 | 850.57 | 840.64 | 830.51
x2 = 0.4798 | 887.62 | 882.8 | 877.94 | 868.11 | 858.1 | 847.89
x2 = 0.5577 | 904.94 | 900.05 | 895.12 | 885.16 | 875.04 | 864.74
x2 = 0.6427 | 925.88 | 920.88 | 915.86 | 905.72 | 895.44 | 885.01
x2 = 0.7195 | 946.94 | 941.83 | 936.71 | 926.37 | 915.92 | 905.33
x2 = 0.7999 | 971.66 | 966.42 | 961.16 | 950.58 | 939.91 | 929.13
x2 = 0.8769 | 998.52 | 993.12 | 987.72 | 976.88 | 965.96 | 954.98
x2 = 0.96 | 1031.62 | 1026.04 | 1020.47 | 1009.32 | 998.13 | 986.89

CCC(=O)O [propanoic acid] + CCC(C)O
mass density [kg/m3]
Details | 283.15 K | 293.15 K | 303.15 K | 313.15 K | 323.15 K | 333.15 K
x1 = 0.082 | 819.64 | 815.41 | 811.1 | 802.26 | 793.05 | 783.48
x1 = 0.1717 | 834.26 | 829.91 | 825.51 | 816.5 | 807.2 | 797.57
x1 = 0.2442 | 846.52 | 842.08 | 837.6 | 828.46 | 819.08 | 809.41
x1 = 0.32 | 859.63 | 855.12 | 850.56 | 841.3 | 831.82 | 822.11
x1 = 0.4004 | 873.99 | 869.39 | 864.76 | 855.37 | 845.79 | 836
x1 = 0.4773 | 887.98 | 883.3 | 878.59 | 869.08 | 859.4 | 849.54
x1 = 0.5609 | 903.61 | 898.85 | 894.07 | 884.41 | 874.61 | 864.65
x1 = 0.6404 | 918.81 | 913.96 | 909.09 | 899.28 | 889.36 | 879.3
x1 = 0.7186 | 934.19 | 929.25 | 924.29 | 914.32 | 904.27 | 894.07
x1 = 0.8009 | 950.85 | 945.79 | 940.74 | 930.57 | 920.34 | 910.02
x1 = 0.8776 | 966.89 | 961.72 | 956.55 | 946.17 | 935.75 | 925.26
x1 = 0.9593 | 984.54 | 979.23 | 973.9 | 963.26 | 952.61 | 941.92

CC(C)CO [2-methyl-1-propanol] + CC(=O)O
mass density [kg/m3]
Details | 293.15 K | 298.15 K | 303.15 K | 313.15 K | 323.15 K | 333.15 K
x2 = 0.0813 | 814.94 | 810.95 | 806.92 | 798.73 | 790.31 | 781.64
x2 = 0.1574 | 827.82 | 823.71 | 819.56 | 811.15 | 802.54 | 793.68
x2 = 0.2405 | 842.93 | 838.69 | 834.42 | 825.76 | 816.92 | 807.86
x2 = 0.319 | 858.14 | 853.78 | 849.39 | 840.5 | 831.45 | 822.19
x2 = 0.4018 | 875.36 | 870.87 | 866.35 | 857.21 | 847.92 | 838.44
x2 = 0.4803 | 892.9 | 888.27 | 883.63 | 874.24 | 864.7 | 855.01
x2 = 0.5599 | 911.99 | 907.22 | 902.44 | 892.78 | 883 | 873.07
x2 = 0.6396 | 932.48 | 927.56 | 922.63 | 912.7 | 902.65 | 892.49
x2 = 0.7199 | 954.87 | 949.79 | 944.71 | 934.47 | 924.16 | 913.72
x2 = 0.7998 | 979.04 | 973.8 | 968.56 | 958.02 | 947.4 | 936.71
x2 = 0.8786 | 1004.98 | 999.57 | 994.16 | 983.31 | 972.4 | 961.43
x2 = 0.9595 | 1033.93 | 1028.35 | 1022.77 | 1011.59 | 1000.4 | 989.16

Reference: the NIST ThermoML archive (doi:10.1021/je201102x)
